# Like-named read-outs stand apart in the source and are kept apart here.
# Columns and labels:
# E. coli GC 2231 = test: MIC, broth microdilution; conditions: Escherichia coli
# E. coli GC 2232 = test: MIC, broth microdilution; conditions: Escherichia coli
# E. coli GC 2234 = test: MIC, broth microdilution; conditions: Escherichia coli
# E. coli GC 2272 = test: MIC, broth microdilution; conditions: Escherichia coli
# E. coli GC 3226 = test: MIC, broth microdilution; conditions: Escherichia coli
# S. typhimurium GC 2172 = test: MIC, broth microdilution; conditions: Salmonella enterica, TYPHIMURIUM
# S. aureus GC 1131 = test: MIC, broth microdilution; conditions: Staphylococcus aureus
# S. aureus GC 6466 = test: MIC, broth microdilution; conditions: Staphylococcus aureus
# Protocol: Antimicrobial susceptibility testing. The in vitro activities of the antibiotics are determined by the broth microdilution method as recommended by the National Committee for Clinical Laboratory Standards (NCCLS) (1). Mueller-Hinton II broth (MHBII)(BBL Cockeysville, Md.) is the medium employed in the testing procedures. Microtiter plates containing serial dilutions of each antimicrobial agent are inoculated with each organism to yield the appropriate density (10^5 CFU/ml) in a 100 μl final volume. The plates are incubated for 18-22 hours at 35° C. in ambient air. […] Standard Pharmacological Test Procedures
# Presented in Tables I-XIII are representative compounds of Formula I which were evaluated against a panel of 40 selected gram-positive and gram-negative bacteria strains by pre-incubation in water, mouse serum or human serum. Representative compounds were first incubated in mouse serum for an hour prior to the in vitro testing against a panel of selected gram-positive and gram-negative bacteria strains. All compounds were also pre-incubated in water for an hour prior to testing as control. Representative compounds of Formula I were incubated in human serum prior to MIC determination.
# S. aureus GC 1079 = test: MIC, broth microdilution; conditions: Staphylococcus aureus
# S. aureus GC 2216 = test: MIC, broth microdilution; conditions: Staphylococcus aureus
# S. aureus GC 6335 = test: MIC, broth microdilution; conditions: Staphylococcus aureus
# S. epidermidis GC 4935 = test: MIC, broth microdilution; conditions: Staphylococcus epidermidis
# E. faecalis GC 2267 = test: MIC, broth microdilution; conditions: Enterococcus faecalis
# E. faecium GC 4556 = test: MIC, broth microdilution; conditions: Enterococcus faecium
# E. faecium GC 2243 = test: MIC, broth microdilution; conditions: Enterococcus faecium
# S. pneumoniae* GC 4465 = test: MIC, broth microdilution; conditions: Streptococcus pneumoniae
# S. pneumoniae+ GC 4465 = test: MIC, broth microdilution; conditions: Streptococcus pneumoniae
# S. pyogenes GC 4563 = test: MIC, broth microdilution; conditions: Streptococcus pyogenes
# c. albicans GC 3066 = test: MIC, broth microdilution
# Staph. aureus Smith = test: In vivo activity (oral, iv; ED50) against Staph. aureus Smith in mice
# Protocol: Representative examples of compounds of Formula I were tested for the oral efficacy using S. aureus Smith in mice.
# [1] = read-out: MINIMAL INHIBITORY CONCENTRATION MIC, Human Serum
# [2] = read-out: MINIMAL INHIBITORY CONCENTRATION MIC, Mouse Serum
# [3] = read-out: MINIMAL INHIBITORY CONCENTRATION MIC, Water
compound,measurement,setting,value
"CCC(=O)OCOC(=O)N(CC(=O)Nc1cc(N(C)C)c2c(c1O)C(=O)C1=C(O)[C@]3(O)C(=O)C(C(N)=O)=C(O)[C@@H](N(C)C)[C@@H]3C[C@@H]1C2)C(C)(C)C [Example 49, ({[(2-{[(5aR,6aS,7S,10aS)-9-(aminocarbonyl)-4,7-bis(dimethylamino)-1,8,10a,11-tetrahydroxy-10,12-dioxo-5,5a,6,6a,7,10,10a,12-octahydrotetracen-2-yl]amino}-2-oxoethyl)(tert-butyl)amino]carbonyl}oxy)methyl propionate]",MIC,"E. coli GC 2231; GC2231, read-out: MINIMAL INHIBITORY CONCENTRATION MIC, Human Serum",8 µg/mL
same,MIC,"E. coli GC 2231; GC2231, read-out: MINIMAL INHIBITORY CONCENTRATION MIC, Mouse Serum",0.5 µg/mL
same,MIC,"E. coli GC 2231; GC2231, read-out: MINIMAL INHIBITORY CONCENTRATION MIC, Water",16 µg/mL
same,MIC,"E. coli GC 2232; GC2232, read-out: MINIMAL INHIBITORY CONCENTRATION MIC, Human Serum",4 µg/mL
same,MIC,"E. coli GC 2232; GC2232, read-out: MINIMAL INHIBITORY CONCENTRATION MIC, Mouse Serum",0.5 µg/mL
same,MIC,"E. coli GC 2232; GC2232, read-out: MINIMAL INHIBITORY CONCENTRATION MIC, Water",16 µg/mL
same,MIC,"E. coli GC 2234; GC2234, read-out: MINIMAL INHIBITORY CONCENTRATION MIC, Human Serum",4 µg/mL
same,MIC,"E. coli GC 2234; GC2234, read-out: MINIMAL INHIBITORY CONCENTRATION MIC, Mouse Serum",0.25 µg/mL
same,MIC,"E. coli GC 2234; GC2234, read-out: MINIMAL INHIBITORY CONCENTRATION MIC, Water",16 µg/mL
same,MIC,"E. coli GC 2272; GC2272, read-out: MINIMAL INHIBITORY CONCENTRATION MIC, Human Serum",2 µg/mL
same,MIC,"E. coli GC 2272; GC2272, read-out: MINIMAL INHIBITORY CONCENTRATION MIC, Mouse Serum",0.5 µg/mL
same,MIC,"E. coli GC 2272; GC2272, read-out: MINIMAL INHIBITORY CONCENTRATION MIC, Water",8 µg/mL
same,MIC,"E. coli GC 3226; GC3226, read-out: MINIMAL INHIBITORY CONCENTRATION MIC, Human Serum",8 µg/mL
same,MIC,"E. coli GC 3226; GC3226, read-out: MINIMAL INHIBITORY CONCENTRATION MIC, Mouse Serum",0.5 µg/mL
same,MIC,"E. coli GC 3226; GC3226, read-out: MINIMAL INHIBITORY CONCENTRATION MIC, Water",16 µg/mL
same,MIC,S. typhimurium GC 2172; [1],32 µg/mL
same,MIC,S. typhimurium GC 2172; [2],4 µg/mL
same,MIC,S. typhimurium GC 2172; [3],> 64 µg/mL
same,MIC,"S. aureus GC 1131; GC1131, read-out: MINIMAL INHIBITORY CONCENTRATION MIC, Human Serum",0.5 µg/mL
same,MIC,"S. aureus GC 1131; GC1131, read-out: MINIMAL INHIBITORY CONCENTRATION MIC, Mouse Serum",0.5 µg/mL
same,MIC,"S. aureus GC 1131; GC1131, read-out: MINIMAL INHIBITORY CONCENTRATION MIC, Water",0.5 µg/mL
same,MIC,"S. aureus GC 6466; GC6466, read-out: MINIMAL INHIBITORY CONCENTRATION MIC, Human Serum",0.12 µg/mL
same,MIC,"S. aureus GC 6466; GC6466, read-out: MINIMAL INHIBITORY CONCENTRATION MIC, Mouse Serum",0.12 µg/mL
same,MIC,"S. aureus GC 6466; GC6466, read-out: MINIMAL INHIBITORY CONCENTRATION MIC, Water",0.12 µg/mL
same,MIC,"S. aureus GC 1079; GC1079, read-out: MINIMAL INHIBITORY CONCENTRATION MIC, Human Serum",0.5 µg/mL
same,MIC,"S. aureus GC 1079; GC1079, read-out: MINIMAL INHIBITORY CONCENTRATION MIC, Mouse Serum",0.5 µg/mL
same,MIC,"S. aureus GC 1079; GC1079, read-out: MINIMAL INHIBITORY CONCENTRATION MIC, Water",0.5 µg/mL
same,MIC,"S. aureus GC 2216; GC2216, read-out: MINIMAL INHIBITORY CONCENTRATION MIC, Human Serum",0.25 µg/mL
same,MIC,"S. aureus GC 2216; GC2216, read-out: MINIMAL INHIBITORY CONCENTRATION MIC, Mouse Serum",0.25 µg/mL
same,MIC,"S. aureus GC 2216; GC2216, read-out: MINIMAL INHIBITORY CONCENTRATION MIC, Water",0.5 µg/mL
same,MIC,"S. aureus GC 6335; GC6335, read-out: MINIMAL INHIBITORY CONCENTRATION MIC, Human Serum",1 µg/mL
same,MIC,"S. aureus GC 6335; GC6335, read-out: MINIMAL INHIBITORY CONCENTRATION MIC, Mouse Serum",1 µg/mL
same,MIC,"S. aureus GC 6335; GC6335, read-out: MINIMAL INHIBITORY CONCENTRATION MIC, Water",2 µg/mL
same,MIC,"S. epidermidis GC 4935; GC4935, read-out: MINIMAL INHIBITORY CONCENTRATION MIC, Human Serum",1 µg/mL
same,MIC,"S. epidermidis GC 4935; GC4935, read-out: MINIMAL INHIBITORY CONCENTRATION MIC, Mouse Serum",1 µg/mL
same,MIC,"S. epidermidis GC 4935; GC4935, read-out: MINIMAL INHIBITORY CONCENTRATION MIC, Water",2 µg/mL
same,MIC,"E. faecalis GC 2267; GC2267, read-out: MINIMAL INHIBITORY CONCENTRATION MIC, Human Serum",1 µg/mL
same,MIC,"E. faecalis GC 2267; GC2267, read-out: MINIMAL INHIBITORY CONCENTRATION MIC, Mouse Serum",0.5 µg/mL
same,MIC,"E. faecalis GC 2267; GC2267, read-out: MINIMAL INHIBITORY CONCENTRATION MIC, Water",4 µg/mL
same,MIC,"E. faecium GC 4556; GC4556, read-out: MINIMAL INHIBITORY CONCENTRATION MIC, Human Serum",1 µg/mL
same,MIC,"E. faecium GC 4556; GC4556, read-out: MINIMAL INHIBITORY CONCENTRATION MIC, Mouse Serum",0.5 µg/mL
same,MIC,"E. faecium GC 4556; GC4556, read-out: MINIMAL INHIBITORY CONCENTRATION MIC, Water",2 µg/mL
same,MIC,"E. faecium GC 2243; GC2243, read-out: MINIMAL INHIBITORY CONCENTRATION MIC, Human Serum",0.25 µg/mL
same,MIC,"E. faecium GC 2243; GC2243, read-out: MINIMAL INHIBITORY CONCENTRATION MIC, Mouse Serum",0.25 µg/mL
same,MIC,"E. faecium GC 2243; GC2243, read-out: MINIMAL INHIBITORY CONCENTRATION MIC, Water",0.5 µg/mL
same,MIC,S. pneumoniae* GC 4465; [1],0.12 µg/mL
same,MIC,S. pneumoniae* GC 4465; [2],0.12 µg/mL
same,MIC,S. pneumoniae* GC 4465; [3],0.12 µg/mL
same,MIC,S. pneumoniae+ GC 4465; [1],1 µg/mL
same,MIC,S. pneumoniae+ GC 4465; [2],1 µg/mL
same,MIC,S. pneumoniae+ GC 4465; [3],1 µg/mL
same,MIC,"S. pyogenes GC 4563; GC4563, read-out: MINIMAL INHIBITORY CONCENTRATION MIC, Human Serum",0.12 µg/mL
same,MIC,"S. pyogenes GC 4563; GC4563, read-out: MINIMAL INHIBITORY CONCENTRATION MIC, Mouse Serum",0.12 µg/mL
same,MIC,"S. pyogenes GC 4563; GC4563, read-out: MINIMAL INHIBITORY CONCENTRATION MIC, Water",0.12 µg/mL
same,MIC,"c. albicans GC 3066; Candida albicans, GC3066, read-out: MINIMAL INHIBITORY CONCENTRATION MIC",> 64 µg/mL
same,MINIMAL INHIBITORY CONCENTRATION MIC,c. albicans GC 3066; Human Serum,>64 UG/ML
same,MINIMAL INHIBITORY CONCENTRATION MIC,c. albicans GC 3066; Mouse Serum,>64 UG/ML
same,ED50,"Staph. aureus Smith; Staphylococcus aureus, in Mus musculus, iv, read-out: ED50 SIV (Staph aureus Smith)",0.92 mg/kg
same,ED50,"Staph. aureus Smith; Staphylococcus aureus, in Mus musculus, po, read-out: ED50 SOD (Staph aureus Smith)",16 mg/kg
same,ED50,"Staph. aureus Smith; Staphylococcus aureus, in Mus musculus, po, read-out: ED50 Staph Smith SOD",16.6 mg/kg
same,ED50,"Staph. aureus Smith; iv, read-out: ED50 Staph Smith SIV",0.92 mg/kg

# From patent US20070049564A1 (Wyeth, priority 2005, published 2007)
